Where two headings read alike, the source gives them in different places.
How the values were obtained:
primary rat hepatocytes = test: Synthesis of total lipids (14C-acetate labeling) in primary rat hepatocytes; type: cell-based; conditions: for IC50: Rattus norvegicus, Hepatocyte, read-out: IC50, inhibition of lipid synthesis in primary hepatocytes
Method: A male Sprague-Dawley rate was anesthetized by administration of sodium pentobarbitol by intraperitoneal at 80 mg/kg. In situ perfusion of the liver was performed as follows. The abdomen of the animal was opened, the portal vein canulated, and the liver perfused with WOSH solution (149 mM NaCl, 9.2 mM Na HEPES, 1.7 mM Fructose, 0.5 mM EGTA, 0.029 mM Phenol red, 10 U/ml heparin, pH 7.5) at a flow rate of 30 ml/min for 6 minutes. To digest the liver, DSC solution (6.7 mM KCl, 143 mM NaCl, 9.2 mM Na HEPES, 5 mM CaCl2-2H2O, 1.7 mM Fructose, 0.029 mM Phenol red, 0.2% BSA, 100 U/ml collagenase Type 1,160 BAEE/ml trypsin inhibitor, pH 7.5) was perfused through the liver at a flow rate of 30 ml/min for 6 minutes at a temperature of 37° C. After digestion, cells were dispersed in a solution of DMEM-(DMEM containing 2 mM GlutMax-1, 0.2% BSA, 5% FBS, 12 nM insulin, 1.2 μM hydrocortisone) to stop the digestion process. The crude cell suspension was filtered through three layers of stainless steel mesh with pore sizes of 250, 106, and 75 μm respectively. Filtered cells were centrifuged at 50×g for two minutes and the supernatant discarded. The resulting cell pellet was resuspended in DMEM and centrifuged again. This final cell pellet was resuspended in DMEM+HS solution (DMEM containing 2 mM GlutMax-1, 20 mM delta-aminolevulinic acid, 17.4 mM MEM nonessential amino acids, 20% FBS, 12 nM insulin, 1.2 μM hydrocortisone) and plated to form monolayer cultures at a density of 100×10^3 cells/cm^2 on collagen coated culture dishes.
To test the effect of an illustrative compound of the invention on synthesis rates of total lipids, the monolayer cultures were exposed to 1, 3, 10, 30, 100, or 300 μM of Compound A or 10 μM of Compound 1 in DMEM+containing 1 μCi/ml 14C-acetate, D-glucose, hepes, glutamine, leucine, alanine, lactate, pyruvate, non-essential amino acids, BSA, and gentamicine. Control cells were exposed to the same media lacking lovastatin or the test compounds. All cells were exposed to 0.1% DMSO. Metabolic labeling with ^14C-acetate continued for 4 hr at 37° C. After labeling, cells were washed twice with 1 mL of PBS followed by addition of scintallant (Microscent E) and counted on Topcount®.

obese female Zucker rats = test: Oral daily treatment of obese female Zucker rats for 14 days (body weight, serum lipids, glucose, insulin); type: in vivo, rat; design: HDL-C / Glucose / Insulin / NEFA / BHA / TG / TC / Non HDL-C: unit not given here; conditions: for change in vivo at 10 mg/kg/day / change in vivo at 10 mg/kg / change in vivo at 30 mg/kg/day / change in vivo at 30 mg/kg / change in vivo at 100 mg/kg/day / change in vivo at 100 mg/kg: Rattus norvegicus, 336 h, oral daily, fourteen days; for change in vivo at 10 mg/kg/day / change in vivo at 30 mg/kg/day / change in vivo at 100 mg/kg/day: read-out: % wt. gain; for change in vivo at 10 mg/kg/day / change in vivo at 10 mg/kg: 10 mg/kg/day; for change in vivo at 30 mg/kg/day / change in vivo at 30 mg/kg: 30 mg/kg/day; for change in vivo at 100 mg/kg/day / change in vivo at 100 mg/kg: 100 mg/kg/day
Method: The dosing vehicle was administered to control animals in parallel experiments.
Body weight was determined daily prior to dosing. Animals were allowed free access to rodent chow and water throughout the study. Blood glucose was determined after a 6-hour fast in the afternoon without anesthesia from a tail vein. Serum was also prepared from a blood sample subsequently obtained from the orbital venous plexus (with O2/CO2 anesthesia) prior to and after one week treatment and used lipid and insulin determinations. At two weeks, blood glucose was again determined after a 6-hour fast without anesthesia from a tail vein. Soon thereafter, animals were sacrificed by CO2 inhalation in the afternoon and cardiac blood serum was collected and assessed for various lipids and insulin.

[1] = obese female Zucker rats, read-out: BHA, Percent Change from Pre-treatment
[2] = obese female Zucker rats, read-out: Glucose, Percent Change from Pre-treatment
[3] = obese female Zucker rats, read-out: HDL-C, Percent Change from Pre-treatment
[4] = obese female Zucker rats, read-out: Insulin, Percent Change from Pre-treatment
[5] = obese female Zucker rats, read-out: NEFA, Percent Change from Pre-treatment
[6] = obese female Zucker rats, read-out: Non HDL-C, Percent Change from Pre-treatment
[7] = obese female Zucker rats, read-out: TC, Percent Change from Pre-treatment
[8] = obese female Zucker rats, read-out: TG, Percent Change from Pre-treatment
[9] = obese female Zucker rats, oral gavage daily 14 days, 5 mg/kg
[10] = obese female Zucker rats, oral, 14 days, 100 mg/kg/day (Table 1)

## CC(C)(CCCCCC(=O)CCCCCC(C)(C)COP(=O)(O)O)COP(=O)(O)O
Primary rat hepatocytes
  IC50: 35 µM

## CC(C)(CCCCC(=O)CCCCC(C)(C)COP(=O)(O)O)COP(=O)(O)O.N.N [Compound D, Phosphoric Acid mono-(2,2,12,12-tetramethyl-7-oxo-13-phosphonooxytridecyl) ester, diammonium salt]
Obese female Zucker rats; obese female Zucker rats
  change in vivo at 10 mg/kg/day: 12%
  change in vivo at 30 mg/kg/day: 9%
  change in vivo at 100 mg/kg/day: 8%
Obese female Zucker rats; [1]
  change in vivo at 10 mg/kg: 123%
  change in vivo at 30 mg/kg: 271%
  change in vivo at 100 mg/kg: 814%
Obese female Zucker rats; [2]
  change in vivo at 10 mg/kg: -5%
  change in vivo at 30 mg/kg: -4%
  change in vivo at 100 mg/kg: -3%
Obese female Zucker rats; [3]
  change in vivo at 10 mg/kg: 5%
  change in vivo at 30 mg/kg: 28%
  change in vivo at 100 mg/kg: 57%
Obese female Zucker rats; [4]
  change in vivo at 10 mg/kg: 4%
  change in vivo at 30 mg/kg: 2%
  change in vivo at 100 mg/kg: 14%
Obese female Zucker rats; [5]
  change in vivo at 10 mg/kg: -13%
  change in vivo at 30 mg/kg: -25%
  change in vivo at 100 mg/kg: -22%
Obese female Zucker rats; [6]
  change in vivo at 10 mg/kg: 25%
  change in vivo at 30 mg/kg: 22%
  change in vivo at 100 mg/kg: 71%
Obese female Zucker rats; [7]
  change in vivo at 10 mg/kg: 8%
  change in vivo at 30 mg/kg: 21%
  change in vivo at 100 mg/kg: 55%
Obese female Zucker rats; [8]
  change in vivo at 10 mg/kg: 11%
  change in vivo at 30 mg/kg: -12%
  change in vivo at 100 mg/kg: -1%
other
  melting point: 191 to 193 °C

## CC(=O)C(CCCCC(C)(C)CO)CCCCC(C)(C)CO [Compound G, 9-Hydroxy-3-(6-hydroxy-5,5-dimethylhexyl)-8,8-dimethylnonan-2-one]
other
  melting point: 178 to 180 °C

## CC(C)(CO)CCCCN(O)CCCCC(C)(C)CO [Compound I]
other
  melting point: 73 °C

## CC(C)(CO)CCCCOC(=O)CCCCC(C)(C)CO [drawing 126]
Primary rat hepatocytes
  IC50: 14 µM

## CC(C)(CO)CCCCN(O)CCCCC(C)(C)CO [drawing 125]
Primary rat hepatocytes
  IC50: 64 µM

## CC(C)(CCCCC(=O)CCCCC(C)(C)COP(=O)(O)O)COP(=O)(O)O
Primary rat hepatocytes
  IC50: 16 µM

## CC(C)(CO)CCCCOCCCCC(C)(C)CO [Compound 1, bis(6-Hydroxy-5,5-dimethylhexyl)ether, reference compound]
Obese female Zucker rats; fasted obese female Zucker rats, oral gavage daily 14 days, 5 mg/kg
  blood glucose levels: reduction
Obese female Zucker rats; fasted obese female Zucker rats, two weeks of treatment, 5 mg/kg
  serum insulin relative to pretreatment: increased
Obese female Zucker rats; [9]
  liver to body weight: increased
  serum total cholesterol: only modestly elevated
  weight gain, percent of initial weight after two weeks: 1.5%
Obese female Zucker rats; [10]
  BHA: 1.6 ± 0.3
  Glucose: −25.3 ± 7.2
  HDL-C: 113.9 ± 26.4
  Insulin: 42.1 ± 23
  NEFA: 0.056 ± 0.002
  Non HDL-C: −26.9 ± 9.3
  TC: −82.5 ± 3.6
  TG: 468.8 ± 139.7
Primary rat hepatocytes; rat hepatocyte cells, 10 μM, 14C-acetate 4 hr, vs vehicle control
  reduction of rates of total lipid synthesis: at least 65%

## CC(C)(CCCCCOCCCCCC(C)(C)COP(=O)(O)O)COP(=O)(O)O
Primary rat hepatocytes
  IC50: 28 µM

## CC(C)(CCCCOCCCCC(C)(C)COP(=O)(O)O)COP(=O)(O)O.N.N.N.N [Compound A, Phosphoric acid mono-16-(5,5-dimethyl-6-phosphonooxyhexyloxy)-2,2-dimethylhexyl] ester, tetraammonium salt]
Obese female Zucker rats; obese female Zucker rats
  change in vivo at 10 mg/kg/day: 9%
  change in vivo at 30 mg/kg/day: 3%
  change in vivo at 100 mg/kg/day: 4%
Obese female Zucker rats; [1]
  change in vivo at 10 mg/kg: 102%
  change in vivo at 30 mg/kg: 141%
  change in vivo at 100 mg/kg: 257%
Obese female Zucker rats; [2]
  change in vivo at 10 mg/kg: -9%
  change in vivo at 30 mg/kg: 1%
  change in vivo at 100 mg/kg: 6%
Obese female Zucker rats; [3]
  change in vivo at 10 mg/kg: 179%
  change in vivo at 30 mg/kg: 228%
  change in vivo at 100 mg/kg: 559%
Obese female Zucker rats; [4]
  change in vivo at 10 mg/kg: -7%
  change in vivo at 30 mg/kg: -16%
  change in vivo at 100 mg/kg: 0%
Obese female Zucker rats; [5]
  change in vivo at 10 mg/kg: 14%
  change in vivo at 30 mg/kg: -32%
  change in vivo at 100 mg/kg: -53%
Obese female Zucker rats; [6]
  change in vivo at 10 mg/kg: 67%
  change in vivo at 30 mg/kg: 71%
  change in vivo at 100 mg/kg: 11%
Obese female Zucker rats; [7]
  change in vivo at 10 mg/kg: 115%
  change in vivo at 30 mg/kg: 164%
  change in vivo at 100 mg/kg: 287%
Obese female Zucker rats; [8]
  change in vivo at 10 mg/kg: 11%
  change in vivo at 30 mg/kg: -31%

## CC(=O)C(CCCCC(C)(C)CO)CCCCC(C)(C)CO [drawing 124]
Primary rat hepatocytes
  IC50: 62 µM

## CC(C)(CCCCOCCCCC(C)(C)COP(=O)(O)O)COP(=O)(O)O
Primary rat hepatocytes
  IC50: 43 µM
